In paper PMC10498667 (Chemical Science, 2023):

What was measured:
[1] = test system: human neuroblastoma SH-SY5Y (5Y) cells; assay: Cellular ROS detection assay (prooxidant activity); assay type: cell-based
Procedure: Cellular ROS Detection Assay. The prooxidant activity of flavonoids in living cells was measured by a cellular ROS detection assay kit (Abcam) following the manufacturer ’s protocol. The human neuroblastoma 5Y cells were maintained in media containing 50% v/v Dulbecco's Modified Eagle Medium and 50% v/v Nutrient Mixture F12 (phenol red-free DMEM/F12; GIBCO, Grand Island, NY, USA) supplemented with 10% v/v fetal bovine serum (GIBCO) and 100 U/mL penicillin-streptomycin (GIBCO). The cells were grown and maintained at 37 °C in a humidified atmosphere with 5% CO2. Cells were seeded in a 96-well plate (50,000 cells/100 µL). After 24 h incubation, a ROS-staining working solution (100 µL) was added to each well and the plate was incubated for 1 h at 37 °C. Cells were then treated with the samples {[flavonoid] = 0.01, 0.1, 0.5, and 1 mM (1% v/v DMSO)}. The cellular ROS levels upon the treatment of samples were measured based on the fluorescence intensity (lex/lem = 520/605 nm) of the wells that was detected after 2 h incubation and calculated, relative to that of the cells containing an equivalent amount of DMSO.
All experiments were performed in triplicate.

Aβ42 = target: T1, Aβ42 (Homo sapiens, UniProt P05067); assay: Additional disaggregation experiments (preformed aggregates or seeds with Aβ monomers); assay type: biochemical; details: metal-free Aβ42 and metal–Aβ42; flavonoid 50 μM
T1 construct: purchased Peptide Institute, Inc. (Osaka, Japan)
Procedure: To probe the secondary nucleation of disassembled Aβ aggregates induced by the flavonoids on Aβ monomers, additional disaggregation experiments were conducted by incubating preformed aggregates of metal-free and metal-treated Aβ or their seeds with Aβ monomers. […] These indications describe the significance of three hydroxyl groups on the A ring in the flavonoid structure to impact the aggregation of metal-free Aβ and metal–Aβ. […]
Ab Aggregation Experiments. Ab was dissolved in ammonium hydroxide [1% w/w NH4OH (aq)] and the resulting solution was aliquoted, lyophilized overnight, and stored at –80 °C. A stock solution of Ab was then prepared by dissolving the lyophilized peptide with NH4OH (1% w/w, aq; 10 µL) and diluting with ddH2O. All Ab samples were prepared following previously reported procedures.21,22 The concentration of the peptide solution was determined by measuring its […]
solution (20 mM HEPES, pH 7.4, 150 mM NaCl) was used for preparing Ab samples. […]
For the disaggregation studies, Ab (25 µM) was incubated with and without CuCl2 or ZnCl2 (25 µM) for 24 h at 37 °C with constant agitation to generate preformed Ab aggregates. The resultant Ab aggregates were then treated with flavonoids (50 µM) and incubated for additional 24 h with constant agitation. For the additional disaggregation experiments, preformed Ab42 aggregates (25 µM) or Ab42 seeds (10% v/v) with or without metal ions (25 µM for CuCl2 and ZnCl2) were incubated with flavonoids (50 µM) for 24 h with constant agitation. The resultant Ab aggregates were then treated with freshly prepared Ab42 […]
(25 µM) and incubated for additional 24 h with constant agitation.
Gel/Western Blot. The resultant Ab species from the aggregation experiments were analyzed by gel/Western blot using an anti-Ab antibody (6E10, Covance, Princeton, NJ, USA).21,22 Each sample (10 µL) was separated on a 10–20% tricine gel (Invitrogen). Following separation, the proteins were transferred onto nitrocellulose membranes and blocked with bovine serum albumin (BSA, 3% w/v; Sigma-Aldrich) in Tris-buffered saline (TBS) containing 0.1% v/v Tween-20 (Sigma-Aldrich) (TBS-T) for 4 h at room temperature or overnight at 4 °C. The membranes were incubated with 6E10 (1:2,000) in the solution of BSA (2% w/v in TBS-T) for 4 h at room temperature. […] A homemade ECL kit21–23 was used to visualize gel/Western blots on a ChemiDoc MP Imaging System (Bio-Rad).
TEM. […]
Cu(II)-binding Studies. The interaction of flavonoids with Cu(II) was detected by Abs spectroscopy in 20 mM HEPES, pH 7.4, 150 mM NaCl. […] The mixture solution was allowed to equilibrate for 5 min after the addition of CuCl2 at room temperature before the spectra were recorded. […]

[2] = Solubility in EtOH (TEAC conditions); assay type: physicochemical; details: under TEAC experimental conditions

T1 sequence (P05067 672-713 limits assumed): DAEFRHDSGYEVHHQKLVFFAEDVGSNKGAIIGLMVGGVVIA

SMILES	cellular ROS concentration / prooxidative activity ([1]; 0.01 and 0.1 mM flavonoid)	cellular ROS concentration / prooxidative activity ([1]; 0.5 and 1 mM flavonoid)	MW distribution after incubating treated preformed aggregates or seeds with Aβ monomers (secondary nucleation) (Aβ42)	solubility in ethanol (EtOH) [2]
O=c1c(-c2ccccc2)coc2cc(O)c(O)c(O)c12 [4b, 5,6,7-trihydroxyisoflavone]	no elevation of the cellular ROS concentration	the prooxidative activity was observed	notable variations in the MW distribution	
O=c1cc(-c2ccccc2)oc2cc(O)cc(O)c12 [compound 1, chrysin]				limited solubility
O=c1cc(-c2ccccc2)oc2ccc(O)c(O)c12 [compound 3, 5,6-dihydroxyflavone]			reactivity specifically towards metal–Aβ42 species	
O=c1cc(-c2ccccc2)oc2cc(O)c(O)c(O)c12 [compound 4, baicalein]			notable variations in the MW distribution	
O=c1cc(-c2ccccc2)oc2c(Cl)c(O)c(O)c(O)c12 [compound 5, 8-chlorobaicalein]			notable variations in the MW distribution	
O=c1c(-c2ccc(O)c(O)c2)coc2cc(O)c(O)c(O)c12 [compound 6, 3-(3,4-dihydroxyphenyl)-5,6,7-trihydroxy-4H-chromen-4-one]	No prooxidative activity	increase in the amount of cellular ROS		
